The pIC50 is the negative decadic logarithm of the IC50, by convention in mol/L. Low readings indicate a high IC50, high ones a low IC50.

SMILES strings stand for the structures. pIC50: −log10 of the molar value. Where “and” joins values, the source holds several entries; their conditions need not be identical. Equal values may be shown once.

This is an account of results in the COVID Moonshot data (paper PMC7615835).

For the assay, the target named is SARS-CoV-2 Main Protease (SARS-CoV-2) (UniProt P0DTD1).
Consider `O=C(CCl)N1CCN(S(=O)(=O)c2c(F)cccc2F)CC1`, for which the negative logarithm of the IC50 (pIC50) is 5.46 and 5.50.

The compound `N#Cc1cc(N(C(=O)c2ccco2)C(C(=O)NCCc2cccc(F)c2)c2cccnc2)ccc1Oc1ccc(C(F)(F)F)cc1` (stereo not given) had a pIC50 below 4.00.

In the case of `CC(C)(C)c1ccc(N(C(=O)c2cc(=O)c3c(O)cccc3o2)C(C(=O)NCCc2cccc(F)c2)c2cccnc2)cc1` (stereo not given), the pIC50 is below 4.00.

`O=C1N(c2cncc3ccccc23)CCC12CN(S(=O)(=O)CC1(C(F)F)CC1)Cc1ccc(Cl)cc12` (stereo not given): the pIC50 is 6.81.

Regarding `CC(C(=O)NS(=O)(=O)c1cnn(-c2cccc(C(F)(F)F)c2)c1)n1cnc(C#N)n1` (stereo not given), the pIC50 was below 4.00.

Regarding `CC(C)c1nc(CN(C)c2cc(Cl)cc(CC(=O)Nc3cncc4ccccc34)c2)cs1`, the pIC50 was 5.58.

Take `Cc1ccncc1NC(=O)C(C)c1cccc(Cl)c1` (stereo not given): the negative logarithm of the IC50 (pIC50) is 4.57 and 4.60.

Compound `O=C(Cc1cc(Cl)cc(Nc2cc(Br)cc(C(F)(F)F)c2)c1)Nc1cncc2ccccc12` gave a pIC50 of 5.73.

Take `CNC(=O)C(C)(C)N1CC(C(=O)Nc2cncc3ccccc23)c2cc(Cl)ccc2C1=O` (stereo not given): the pIC50 was 5.99.

Take `Cn1ncc(NC(=O)C2CCOc3ccc(Cl)cc32)c1C(F)F` (stereo not given): the pIC50 was below 4.00.

`O=C(CCl)N1CCCN(S(=O)(=O)c2cccs2)CC1` showed a pIC50 of 5.14.

`O=C(Cc1cc(Cl)cc(CC2CC(=O)N2)c1)Nc1cncc2ccccc12` (stereo not given) gave a pIC50 of 5.34.

The compound `CC1(C(=O)Nc2cncc3ccccc23)CN(CC2CC2)S(=O)(=O)c2ccc(Cl)cc21` (stereo not given) showed a pIC50 of 6.20.

In turn, `Cc1ccncc1NC(=O)Cc1cccc(-c2cn[nH]c2)c1` gave a pIC50 of 4.27.

`O=C(Cc1cc(Cl)cc(NCc2ccc(OC(F)(F)F)cc2)c1)Nc1cncc2ccccc12` showed a pIC50 of 5.26.

`N#Cc1ccc(Cl)c(Nc2cc(Cl)cc(CC(=O)Nc3cncc4ccccc34)c2)c1` gave a pIC50 of 5.70.

The compound `Clc1scc(CN2CCC(c3ccn[nH]3)CC2)c1Cl` showed a pIC50 below 4.00.

As to `O=C(Cc1cc(Cl)cc(Nc2ccc(F)c(F)c2Br)c1)Nc1cncc2ccccc12`, the pIC50 was 5.71.

In turn, `CS(=O)(=O)c1ccc2c(NC(=O)C3CN(CC(=O)NC4COC4)C(=O)c4ccc(Cl)cc43)cncc2c1` (stereo not given) showed a pIC50 of 6.06.

Compound `CN(C)c1ccc(N(Cc2cscn2)C(=O)Cn2nnc3ccccc32)cc1` had a pIC50 of 5.31.

On to `Nc1cncc(NC(=O)C2CCOc3ccc(Cl)cc32)c1C1CC1` (stereo not given), for which the pIC50 was 5.31.

In the case of `O=C(Cc1cc(Cl)cc(Nc2ccc([N+](=O)[O-])cc2C(F)(F)F)c1)Nc1cncc2ccccc12`, the pIC50 was 5.70.

Take `Cc1ccc(NC2=C(c3ccccc3)C(=O)N(Cc3cccnc3)C2=O)cc1C`: the pIC50 is below 4.00.

Turning to `COC(=O)C1CC(NC(=O)C(c2cccnc2)N(C(=O)c2cocn2)c2ccc(C(C)(C)C)cc2)C1` (stereo not given), the pIC50 is 5.40.

`O=C(Cc1cc(Cl)cc(Nc2cc(Cl)ccc2Br)c1)Nc1cncc2ccccc12` gave a pIC50 of 5.68.

Turning to `CN(C)C(=O)CNC(=O)C(c1cccnc1)N(C(=O)c1ccco1)c1ccc(C(C)(C)C)cc1` (stereo not given), the pIC50 is 4.96.

As for `O=C(NCCc1cccc(F)c1)C(c1cccnc1)N(Cc1cc(C(F)(F)F)cs1)C(=O)c1ccco1` (stereo not given), the pIC50 is below 4.00.

Turning to `Cc1cc(I)ccc1Nc1cc(Cl)cc(CC(=O)Nc2cncc3ccccc23)c1`, the pIC50 is 5.61.

Compound `O=C(Nc1cncc2ccccc12)C1CN(S(=O)(=O)CC2(F)CC2)Cc2ccc(Cl)cc21` (stereo not given) had a pIC50 of 6.75.

`O=C(Nc1cncc2cc(CN3CCNCC3)ccc12)C1CCOc2ccc(Cl)cc21` (stereo not given) showed a negative logarithm of the IC50 (pIC50) of 5.74.

With `Cc1cc(Nc2cc(Cl)cc(CC(=O)Nc3cncc4ccccc34)c2)c(Cl)cc1F`, the pIC50 is 5.67.

`COc1ccccc1OCC(C)NC(=O)c1cc(=O)[nH]c2cc(F)ccc12` (stereo not given): the pIC50 is 4.39 and 4.57.

On to `O=C(NCc1cccc(Cl)c1)c1cncc2ccccc12`, for which the pIC50 is 4.49.

Regarding `O=C(Nc1cncc2cc(F)ccc12)[C@H]1CCS(=O)(=O)c2ccc(Cl)cc21` (stereo in doubt), the pIC50 is 4.61.

In turn, `CN(C)S(=O)(=O)N1Cc2ccc(Cl)cc2C(C(=O)Nc2cnccc2C(F)(F)F)C1` (stereo not given) had a pIC50 of 4.54.

For the compound `Cc1ncc(CO)c(CNc2cc(Cl)cc(CC(=O)Nc3cncc4ccccc34)c2)c1O`, the pIC50 is 5.04.

For `CNC(=O)c1ccc2cncc(NC(=O)C3CN(S(=O)(=O)CC4(C)CS(=O)(=O)C4)Cc4ccc(Cl)cc43)c2c1` (stereo not given), the negative logarithm of the IC50 (pIC50) is 6.96.

Compound `Cc1ccnc(N)c1NC(=O)C1CCOc2ccc(Cl)cc21` (stereo not given) showed a pIC50 of 4.16.

In the case of `Cn1nncc1C(=O)N(c1ccc(C(C)(C)C)cc1)C(C(=O)NCCc1cccc(F)c1)c1cccnc1` (stereo not given), the negative logarithm of the IC50 (pIC50) was below 4.00.

Take `Cc1cc(C)n(C2CCCN(C(=O)c3c[nH]c4ncccc34)C2)n1` (stereo not given): the pIC50 is below 4.00.

The compound `CN1CCN(c2ccc(F)cc2C(=O)N2CCC(C3CCNC3)CC2)CC1` (stereo not given) showed a pIC50 below 4.00.

`O=C(Cc1cncc2ccccc12)Nc1cccc(Cl)c1` gave a pIC50 of 5.19.

In the case of `N#CC(C(=O)Nc1cncc2ccccc12)c1ccc(Cl)c(Cl)c1` (stereo not given), the pIC50 is 6.10.

`N#Cc1cccc(NC(=O)Nc2cncc(N)c2)c1` gave a pIC50 of 4.27.

The compound `Cc1nc(-c2cccc(NCc3ccccc3C)c2)n[nH]1` had a pIC50 below 4.00.

Compound `Cc1cc(C(F)(F)F)nc2c1c(N)nn2C(=O)Cc1cccc(Cl)c1` showed a negative-log IC50 (pIC50) below 4.00.

On to `CCN1CCCC1C1CCCN1C(=O)CCc1c[nH]c2ccccc12` (stereo not given), for which the pIC50 is below 4.00.

On to `O=C(Cc1cc(Cl)cc(N[C@H]2C(O)O[C@H](CO)[C@@H](O)[C@@H]2O)c1)Nc1cncc2ccccc12` (stereo in doubt), for which the pIC50 is 5.53.

For `C=CC(=O)NCc1ccccc1S(=O)(=O)NC(C)(C)C`, the pIC50 was below 4.00.

Compound `O=C1N(c2cncc3ccccc23)CCC12CN(S(=O)(=O)CC1(C(F)(F)F)CC1)Cc1ccc(Cl)cc12` (stereo not given) showed a pIC50 of 6.80.

For `Cn1c(C(=O)N(c2ccc(C(C)(C)C)cc2)C(C(=O)NCCc2cccc(F)c2)c2cccnc2)c[nH]c1=O` (stereo not given), the pIC50 is below 4.00.

In turn, `C[C@H]1C[C@H](C(=O)Nc2cncc3ccccc23)c2cc(Cl)ccc2O1` (stereo in doubt) had a pIC50 of 4.28.

The compound `CS(=O)(=O)N1Cc2cc(F)c(Cl)cc2C(C(=O)Nc2cncc3ccccc23)C1` (stereo not given) showed a negative logarithm of the IC50 (pIC50) of 6.59.

`CC(C)(C)c1ccc(N(C(=O)c2cn(C3COCC3=O)nn2)C(C(=O)NCCc2cccc(F)c2)c2cccnc2)cc1` (stereo not given) showed a pIC50 of 4.71.

With `COC(=O)[C@H]1CC[C@@H](CNC(C(=O)Nc2cncc3ccccc23)c2cccc(Cl)c2)O1` (stereo in doubt), the pIC50 is 5.76.

`Cn1ncc2c(=O)[nH]c(NNC(=O)c3cccn4nccc34)nc21` showed a pIC50 below 4.00.

In turn, `O=C1OC2(CCOc3ccc(Cl)cc32)C(=O)N1c1cncc2ccccc12` (stereo not given) had a negative logarithm of the IC50 (pIC50) below 4.00.

`CS(=O)(=O)c1ccc2c(NC(=O)C3CCOc4ccc(Cl)cc43)cncc2c1` (stereo not given) gave a pIC50 of 6.37.

`O=C(Cn1cnc2ccccc21)Nc1cccc(Cl)c1` had a pIC50 of 4.06.

`Cn1nc(C(C(=O)NCCc2cccc(F)c2)N(C(=O)c2ccco2)c2ccc(C(C)(C)C)cc2)c2ccccc21` (stereo not given): the pIC50 was below 4.00.

With `Cc1ccncc1NC(=O)Cc1cc(Cl)cc(OCc2nnc(C3CCCCC3)o2)c1`, the pIC50 is 4.69.

The compound `CC(C)(C)c1ccc(N(C(=O)c2ccncc2)C(C(=O)NCCc2cccc(F)c2)c2cccnc2)cc1` (stereo not given) had a pIC50 below 4.00.

Take `O=C(Nc1c[nH]c(=O)c2ccccc12)C1CCOc2ccc(Cl)cc21` (stereo not given): the negative logarithm of the IC50 (pIC50) was below 4.00.

Regarding `CCn1nccc1C(=O)N1Cc2ccc(Cl)cc2C2(CCN(c3cncc4ccccc34)C2=O)C1` (stereo not given), the pIC50 was 6.53.

As to `Cc1ccc(S(=O)(=O)N2CCN(C(=O)CCl)CC2)cc1`, the pIC50 was 4.68.

With `CCCCCC(=O)SCCNC(=O)CCNC(=O)[C@H](O)C(C)(C)COP(=O)(O)OP(=O)(O)OC[C@H]1O[C@@H](n2cnc3c(N)ncnc32)[C@H](O)[C@@H]1OP(=O)(O)O` (stereo in doubt), the pIC50 is 4.34 and 4.07.

`CCCc1cc2c(cc1S(=O)(=O)N1CCN(c3ccccc3OC)CC1)OCO2` showed a pIC50 below 4.00.

Regarding `O=C(NCCc1cccc(F)c1)C(c1cccnc1)N(C(=O)c1cocn1)C1Cc2ccccc21` (stereo not given), the pIC50 was below 4.00.

In the case of `Cc1nn(C)c2nc(Cl)cc(NNC(=O)c3ccnc4[nH]nnc34)c12`, the pIC50 was below 4.00.

`C#CCCCC(=O)N[C@@H](CC)C(=O)N[C@H](C(=O)N[C@@H](CC(C)C)C(=O)N[C@@H](CCC(=O)N(C)C)C(=O)COC(=O)c1c(C)cccc1C)C(C)(C)C` (stereo in doubt): the pIC50 is 5.24 and 5.23.

`Nc1ccccc1-c1nc2ccccc2n1-c1cc(Cl)cc(CC(=O)Nc2cncc3ccccc23)c1` had a pIC50 of 5.29.

For `COc1ccc2c(NC(=O)Cc3cccc(Cl)c3)[nH]nc2c1`, the pIC50 is below 4.00.

Turning to `Cc1ccc(S(=O)(=O)N2CCN(C(=O)CCl)C[C@H]2C(=O)NCc2ccccc2)cc1` (stereo in doubt), the pIC50 is 5.44.

`CN(C)C(=O)CN1CCN(c2cc(Cl)cc(CC(=O)Nc3cncc4ccccc34)c2)CC1`: the pIC50 was 5.55.

Consider `CC(NC(=O)Cc1ccc(-n2cnnn2)cc1)(C(=O)Nc1cncc2ccccc12)c1ccc(Cl)c(Cl)c1` (stereo not given), for which the pIC50 was 5.47 and 5.20.

As to `COC1CN(S(=O)(=O)N2Cc3ccc(Cl)cc3C3(CCN(c4cncc5ccccc45)C3=O)C2)C1` (stereo not given), the pIC50 is 6.65.

Regarding `CN(Cc1ccc(Cl)cc1)c1cc(Cl)cc(CC(=O)Nc2cncc3ccccc23)c1`, the negative logarithm of the IC50 (pIC50) is 5.62.

In the case of `OC(Cc1cccc(Cl)c1)Cn1cncn1` (stereo not given), the pIC50 is 4.19.

On to `COC(=O)/C=C/C(=O)N(C(=O)[C@H]1CCOc2ccc(Cl)cc21)c1cncc2ccccc12` (stereo in doubt), for which the pIC50 is 5.36.

For the compound `O=C(Cc1cccc(Cl)c1)Nc1cncc2c(Cl)cccc12`, the pIC50 was below 4.00.

Turning to `COC(=O)[C@@H]1CC[C@H](NC(=O)C(c2cccnc2)N(C(=O)c2cocn2)c2ccc(C(C)(C)C)cc2)C1` (stereo in doubt), the pIC50 was 5.62.

Compound `Cc1[nH]c2ccccc2c1/C=N/c1sc2c(c1C#N)CCC(C)C2` (stereo not given) had a pIC50 below 4.00.

In turn, `Cc1cc(F)cc2cncc(NC(=O)Cc3cccc(Cl)c3)c12` had a pIC50 of 6.07.

As to `O=C(Cc1cncc2ccccc12)N(CCC1CCCCC1)c1cccc(Cl)c1`, the negative-log IC50 (pIC50) was 5.68.

For `O=C(Cc1cc(Cl)cc(N(C(=O)c2ccccc2)C2CCNCC2)c1)Nc1cncc2ccccc12`, the pIC50 was 5.67.
